According to US20090023687A1, “Method for Controlling Phytopathogenic Organisms” (SYNGENTA CROP PROTECTION, INC., priority 2005, published 2009):
Where two headings read alike, the source gives them in different places.

Columns and labels:
Format in all cases: in vivo
Phakopsora pachyrhizi [1] = assay: Leaf disc test with Phakopsora pachyrhizi on glyphosate sensitive soybean, leaf disks treated (Example 4)
Source text: (§1) A synergistic effect exists whenever the action of an active ingredient combination is greater than the action expected from the effect of the individual components.
(§2) The action to be expected (E) for a given active ingredient combination obeys the so-called COLBY formula and can be calculated as follows (COLBY, S. R. “Calculating synergistic and antagonistic responses of herbicide combination”. Weeds, Vol. 15, pages 20-22; 1967):
(§3) ppm=milligrams of active ingredient (=a.i.) per litre of spray mixture X=% action by active ingredient I using p ppm of active ingredient Y=% action by active ingredient II using q ppm of active ingredient.
(§4) According to Colby, the expected (additive) action of active ingredients I+II using p+q ppm of active ingredient is
(§5) If the action actually observed (O) is greater than the expected action (E), then the action of the combination is superadditive, i.e. there is a synergistic effect.
(§6) A series of leaf disc tests were conducted to show the effects of tank mixtures of glyphosate and pesticides or plant activators on Asian soybean rust. The soybean variety tested was brand Williams82 glyphosate sensitive soybean. The leaf source for the testing was the first trifoliate leaf. Six (6) repetitions for each formulation and at each rate were conducted. Treatment of the leaf disks with the recited active ingredients was conducted 4 weeks after planting. The leaves were inoculated with Phakopsora pachyrhizi (Asian soybean rust (ASR)) one (1) day after treatment. Evaluation of the leaf was conducted ten (10) days after inoculation and the mean percent infestation of the six repetitions is reported in Tables 8-11.
As glyphosate source Touchdown® HiTech or Zapp® QI was used. The fungicides were used as commercial formulations: Bion® WG50 plant activator comprising acibenzolar-S-methyl (Syngenta Corp.), Opus® SC125 fungicide comprising epoxiconazole commercially (BASF AG), Tilt® EC250 fungicide comprising propiconazole (Syngenta Corp.), Quadris® SC250 fungicide comprising azoxystrobin (Syngenta Corp.). The rates of the active ingredients used in the tests are set in Tables 8-11 as mg active ingredient (a.i.)/L.

Phakopsora pachyrhizi [2] = assay: whole plant or invertebrate; details: in Glycine max, foliar, read-out: % activity observed
Source text: as §1, §2, §3, §4, §5
as §6, with “the ortho-substituted phenyl-amide (OPA) fungicides represented by structures F-5 and F-9” for “pesticides or plant activators”, “leaf” for “leaf disks”, “3 and 4.” for “8-11.”
The glyphosate source was Touchdown® HiTech herbicide (Syngenta Corp.), containing the potassium salt of glyphosate and no adjuvant system. The compound OPA F-5 used was a compound of formula F-5, wherein the ratio of racemic compounds of formula F-3 (syn) to racemic compounds of formula F-4 (anti) was 9:1. The compound OPA F-9 used was a compound of formula F-9, wherein the ratio of racemic compounds of formula F-7 (trans) to racemic compounds of formula F-8 (cis) was around 100:1. The fungicides used were EC100 formulations of OPA F-5 and OPA F-9 which are emulsion concentrates containing 100 ga.i./L. The rates of the active ingredients used in the tests are set in the table as mg active ingredient (a.i.)/L.

Puccinia recondita = assay: Greenhouse trial with Puccinia recondita on glyphosate sensitive wheat (Example 3); details: read-out: % activity observed
Source text: as §1, §2, §3, §4, §5
Greenhouse tests were conducted to show the effects of tank mixtures of glyphosate and the ortho-substituted phenyl-amide (OPA) fungicides represented by structures F-10, F-5 and F-9 on cereal rust Puccinia recondita. The wheat variety tested was brand Kanzler glyphosate sensitive wheat. Three (3) repetitions for each formulation and at each rate were conducted. Treatment of the plants with the recited active ingredients was conducted preventatively 16 days after planting. The leaves were inoculated with Puccinia recondita one (1) day after treatment. Evaluation of the leaf was conducted […] after inoculation and the mean percent infestation of the three repetitions is reported in Tables 5-7.
The glyphosate source was Zapp® QI herbicide containing the potassium salt of glyphosate as well as an adjuvant system. The compound OPA F-5 used was a compound of formula F-5, wherein the ratio of racemic compounds of formula F-3 (syn) to racemic compounds of formula F-4 (anti) was 9:1. The compound OPA F-9 used was a compound of formula F-9, wherein the ratio of racemic compounds of formula F-7 (trans) to racemic compounds of formula F-8 (cis) was around 100:1. The fungicides used were EC 100 formulations of OPA F-10, OPA F-5 and OPA F-9 which are emulsion concentrates containing 100 ga.i./L. The rates of the active ingredients used in the tests are set in Tables 5-7 as mg active ingredient (a.i.)/L.

Phakopsora pachyrhizi [3] = assay: Application on whole plants: leaf disc test with Phakopsora pachyrhizi on glyphosate sensitive soybean (Example 5)
Source text: as §1, §2, §3, §4, §5
(§7) A series of leaf disc tests were conducted to show the effects of tank mixtures of glyphosate and pesticides or plant activators on Asian soybean rust. The soybean variety tested was brand Williams82 glyphosate sensitive soybean. The leaf source for the testing was the first trifoliate leaf. Six (6) repetitions for each formulation and at each rate were conducted. Treatment of whole plants with the recited active ingredients was conducted 4 weeks after planting. After application, leaf disks were cut and inoculated with Phakopsora pachyrhizi (Asian soybean rust (ASR)) one (1) day after treatment. Evaluation of the leaf was conducted ten (10) days after inoculation and the mean percent infestation of the six repetitions is reported in Tables 12-14.
As glyphosate source Touchdown® HiTech or Zapp® QI was used. The fungicides were used as commercial formulations: Cantus® WG50 fungicide comprising boscalid (BASF AG), Quadris® SC250 fungicide and Bion® WG50 plant activator comprising acibenzolar-S-methyl. The rates of the active ingredients used in the tests are set in Tables 12-14 as g active ingredient (a.i.)/hectare (ha). The spray volume was 200 l/ha.

Phakopsora pachyrhizi [4] = assay: Application on whole plants: leaf disc test with Phakopsora pachyrhizi on glyphosate tolerant soybean (Example 6)
Source text: as §1, §2, §3, §4, §5
as §7, with “Leaf” for “A series of leaf”, “S40-R9” for “Williams82”, “tolerant” for “sensitive”, “[…]” for “of whole plants with the recited active ingredients was conducted 4 weeks after planting. After”, “15-17.” for “12-14.”
As glyphosate source Touchdown® HiTech or Zapp® QI was used. The fungicides were used as commercial formulations: Bravo® SC500 fungicide comprising chlorothalonil (Syngenta Corp.), Score® EC250 fungicide comprising difenaconazole (Syngenta Corp.) and Mancozeb 80WP fungicide comprising mancozeb. The rates of the active ingredients used in the tests are set in Tables 15-17 as g active ingredient (a.i.)/hectare (ha). The spray volume was 200 l/ha.

[5] = Epoxiconazole Opus SC125 0.2 mg a.i./L
[6] = Acibenzolar Bion WG50 6.7 mg a.i./L
[7] = Acibenzolar Bion WG50 20 mg a.i./L
[8] = Acibenzolar Bion WG50 10 g a.i./ha
[9] = Acibenzolar Bion WG50 60 g a.i./ha
[10] = Azoxystrobin Quadris SC250 0.2 mg a.i./L
[11] = Azoxystrobin Quadris SC250 0.7 mg a.i./L
[12] = Azoxystrobin Quadris SC250 50 g a.i./ha
[13] = Azoxystrobin Quadris SC250 100 g a.i./ha
[14] = Boscalid Cantus WG50 250 g a.i./ha
[15] = Boscalid Cantus WG50 500 g a.i./ha
[16] = Chlorothalonil Bravo SC500 83.3 g a.i./ha
[17] = Chlorothalonil Bravo SC500 1500 g a.i./ha
[18] = Difenoconazole Score EC250 5 g a.i./ha
[19] = Difenoconazole Score EC250 15 g a.i./ha
[20] = Propiconazole Tilt EC250 0.7 mg a.i./L

Fc1ccc([C@]2(Cn3cncn3)O[C@H]2c2ccccc2Cl)cc1 (racemic) [Epoxiconazole, epoxiconazole]
Activity observed % (Phakopsora pachyrhizi [1]; [5]): 19%
Leaf attack % (Phakopsora pachyrhizi [1]; [5]): 62%

Cn1cc(C(=O)Nc2ccccc2C2CC2C2CC2)c(C(F)F)n1 (racemic) [OPA F-9]
inhibition at 0.2 µg/mL (Phakopsora pachyrhizi [2]; OPA F-9 0.2 mg a.i./L): 0%
inhibition at 0.7 µg/mL (Phakopsora pachyrhizi [2]; OPA F-9 0.7 mg a.i./L): 0%
inhibition at 2.2 µg/mL (Phakopsora pachyrhizi [2]; OPA F-9 2.2 mg a.i./L): 24%
inhibition at 6.7 µg/mL (Phakopsora pachyrhizi [2]; OPA F-9 6.7 mg a.i./L): 74%
inhibition at 20 µg/mL (Phakopsora pachyrhizi [2]; OPA F-9 20 mg a.i./L): 100%
inhibition at 6.6 µg/mL (Puccinia recondita; OPA F-9 6.6 mg a.i./L): 81.9%

CSC(=O)c1cccc2nnsc12 [Acibenzolar, acibenzolar-S-methyl]
Activity observed % (Phakopsora pachyrhizi [1]; [6]): 0%
Leaf attack % (Phakopsora pachyrhizi [1]; [6]): 74%
Activity observed % (Phakopsora pachyrhizi [1]; [7]): 10%
Leaf attack % (Phakopsora pachyrhizi [1]; [7]): 62%
Activity observed % (Phakopsora pachyrhizi [3]; [8]): 19%
Leaf attack % (Phakopsora pachyrhizi [3]; [8]): 50%
Activity observed % (Phakopsora pachyrhizi [3]; [9]): 31%
Leaf attack % (Phakopsora pachyrhizi [3]; [9]): 43%

CO/C=C(/C(=O)OC)c1ccccc1Oc1cc(Oc2ccccc2C#N)ncn1 [Azoxystrobin, azoxystrobin]
Activity observed % (Phakopsora pachyrhizi [1]; [10]): 15%
Leaf attack % (Phakopsora pachyrhizi [1]; [10]): 68%
Activity observed % (Phakopsora pachyrhizi [1]; [11]): 60%
Leaf attack % (Phakopsora pachyrhizi [1]; [11]): 32%
Activity observed % (Phakopsora pachyrhizi [3]; [12]): 0%
Leaf attack % (Phakopsora pachyrhizi [3]; [12]): 62%
Activity observed % (Phakopsora pachyrhizi [3]; [13]): 29%
Leaf attack % (Phakopsora pachyrhizi [3]; [13]): 44%

O=C(Nc1ccccc1-c1ccc(Cl)cc1)c1cccnc1Cl [Boscalid, boscalid]
Activity observed % (Phakopsora pachyrhizi [3]; [14]): 7%
Leaf attack % (Phakopsora pachyrhizi [3]; [14]): 58%
Activity observed % (Phakopsora pachyrhizi [3]; [15]): 19%
Leaf attack % (Phakopsora pachyrhizi [3]; [15]): 50%

N#Cc1c(Cl)c(Cl)c(Cl)c(C#N)c1Cl [Chlorothalonil, chlorothalonil]
Activity observed % (Phakopsora pachyrhizi [4]; [16]): 0%
Leaf attack % (Phakopsora pachyrhizi [4]; [16]): 80%
Activity observed % (Phakopsora pachyrhizi [4]; [17]): 17%
Leaf attack % (Phakopsora pachyrhizi [4]; [17]): 50%

CC1COC(Cn2cncn2)(c2ccc(Oc3ccc(Cl)cc3)cc2Cl)O1 (centres unmarked) [Difenoconazole, difenaconazole]
Activity observed % (Phakopsora pachyrhizi [4]; [18]): 0%
Leaf attack % (Phakopsora pachyrhizi [4]; [18]): 50%
Activity observed % (Phakopsora pachyrhizi [4]; [19]): 0%
Leaf attack % (Phakopsora pachyrhizi [4]; [19]): 50%

Cn1cc(C(=O)Nc2ccccc2-c2ccc(C#CC(C)(C)C)cc2)c(C(F)F)n1 [OPA F-10]
inhibition at 2.2 µg/mL (Puccinia recondita; OPA F-10 2.2 mg a.i./L): 0%
inhibition at 6.6 µg/mL (Puccinia recondita; OPA F-10 6.6 mg a.i./L): 0%

CCCC1COC(Cn2cncn2)(c2ccc(Cl)cc2Cl)O1 (centres unmarked) [Propiconazole, propiconazole]
Activity observed % (Phakopsora pachyrhizi [1]; [20]): 4%
Leaf attack % (Phakopsora pachyrhizi [1]; [20]): 74%

mancozeb
Activity observed % (Phakopsora pachyrhizi [4]; Mancozeb WP80 750 g a.i./ha): 47%
Leaf attack % (Phakopsora pachyrhizi [4]; Mancozeb WP80 750 g a.i./ha): 32%
Activity observed % (Phakopsora pachyrhizi [4]; Mancozeb WP80 1500 g a.i./ha): 37%
Leaf attack % (Phakopsora pachyrhizi [4]; Mancozeb WP80 1500 g a.i./ha): 38%
